According to PMC10793102 (Acta Pharmaceutica Sinica. B, 2023):
Where two headings read alike, the source gives them in different places.

Key:
L929 = assay: Cell viability assay, protection from necroptosis in L929 cells; format: cell-based, mouse; conditions: for EC50: Mus musculus, L929, 16 h; for protective effects against cell death of L929 cells induced by TNFα: TNFα 40 ng/mL, 15 h, Fig. 2A
FADD−/− Jurkat = assay: Cell viability assay, protection from necroptosis in FADD−/− Jurkat cells; format: cell-based; conditions: Homo sapiens, 16 h
[1] = system: phosphorylation of RIPK1, RIPK3 and MLKL; assay: Western blotting of necroptosis pathway in stimulated HT-29 cells; format: cell-based, human; conditions: compounds at 5 μmol/L, 4 h
PK study in mice = format: in vivo; conditions: male, ICR, mouse, plasma
[2] = read-out: EC50 FADD−/− Jurkat T + S
[3] = read-out: EC50 FADD−/− Jurkat TNFα

| SMILES | EC50 (L929; read-out: EC50 L929 T + S) [nM] | EC50 (L929; read-out: EC50 L929 TNFα) [nM] | EC50 (FADD−/− Jurkat; [2]) [nM] | EC50 (FADD−/− Jurkat; [3]) [nM] | also measured |
| --- | --- | --- | --- | --- | --- |
| CCN1CCN(Cc2ccc(NC(=O)Cc3ccc(-n4cnc5cc(C(=O)NC)ccc54)cc3)cc2C(F)(F)F)CC1 [compound 11] | 713 | 190 | > 10000 | > 10000 | protective effects against cell death of L929 cells induced by TNFα (L929): protective effects similar to 10; phosphorylation of RIPK1 (Western blot) [1]: diminished the phosphorylation of the upstream effector RIPK1; phosphorylation of RIPK3 and MLKL (Western blot) [1]: comparably diminished the phosphorylation of RIPK3 and the downstream MLKL |
| CCN1CCN(Cc2ccc(NC(=O)Nc3ccc(-n4cnc5cc(C(=O)NC)ccc54)cc3)cc2C(F)(F)F)CC1 [compound 12] |  |  |  |  | protective effects against cell death of L929 cells induced by TNFα (L929): protective effects similar to 10; phosphorylation of RIPK1 (Western blot) [1]: diminished the phosphorylation of the upstream effector RIPK1; phosphorylation of RIPK3 and MLKL (Western blot) [1]: comparably diminished the phosphorylation of RIPK3 and the downstream MLKL |
| CCN1CCN(Cc2ccc(NC(=O)c3ccc(-n4cnc5cc(C(=O)NC)ccc54)cc3)cc2C(F)(F)F)CC1 [compound 13] |  |  |  |  | protective effects against cell death of L929 cells induced by TNFα (L929): relatively weaker |
| CNC(=O)c1ccc2c(c1)ncn2-c1ccc(CC(=O)N(O)Cc2ccccc2)cc1 [compound 14] | 98 | 50 | > 10000 | 3800 |  |
| CNC(=O)c1ccc2c(c1)ncn2-c1ccc(CNC(=O)c2n[nH]c(Cc3ccccc3)n2)cc1 [compound 15] |  |  |  | > 10000 |  |
| CNC(=O)c1ccc2c(c1)ncn2-c1ccc(CNC(=O)c2noc(Cc3ccccc3)n2)cc1 [compound 16] |  | 962 | 176 | 24 |  |
| CNC(=O)c1ccc2c(c1)ncn2-c1ccc(CNC(=O)c2nnc(Cc3ccccc3)o2)cc1 [compound 17] |  |  | 1520 | 185 |  |
| CNC(=O)c1ccc2c(c1)ncn2-c1ccc(CNC(=O)c2ncc(Cc3ccccc3)o2)cc1 [compound 18] | 3980 | 831 | 380 | 70 |  |
| CNC(=O)c1ccc2c(c1)ncn2-c1ccc(CNC(=O)c2nocc2Cc2ccccc2)cc1 [compound 19] | 3350 | 2140 | 113 | 8.1 |  |
| CNC(=O)c1ccc2ncn(-c3ccc(CNC(=O)c4cc(Cc5ccccc5)nn4C)cc3)c2c1 [compound 21] | > 10000 | > 10000 | > 10000 | > 10000 |  |
| CCn1nc(C(=O)NCc2ccc(-n3cnc4cc(C(=O)NC)ccc43)cc2)cc1Cc1ccccc1 [compound 22] |  |  | 43 | 5.9 |  |
| CCCn1nc(C(=O)NCc2ccc(-n3cnc4cc(C(=O)NC)ccc43)cc2)cc1Cc1ccccc1 [compound 23] |  |  | 738 | 109 |  |
| CNC(=O)c1ccc2c(c1)ncn2-c1ccc(CNC(=O)c2cn(Cc3ccccc3)nn2)cc1 [compound 24] |  |  | 1590 | 233 |  |
| CNC(=O)c1ccc2c(c1)ncn2-c1ccc(CNC(=O)c2nnn(Cc3ccccc3)n2)cc1 [compound 25] |  |  | 150 | 24 |  |
| CNC(=O)c1ccc2c(c1)ncn2-c1ccc(CNC(=O)c2ccc(F)n2Cc2ccccc2)cc1 [compound 26] | 34 | 6 | 17 | 1.7 |  |
| CNC(=O)c1ccc2c(ccn2-c2ccc(CNC(=O)c3cc(Cc4ccccc4)n(C)n3)cc2)c1 [compound 28] | > 10000 | > 10000 | > 10000 | > 10000 |  |
| CNC(=O)c1ccc2c(cnn2-c2ccc(CNC(=O)c3cc(Cc4ccccc4)n(C)n3)cc2)c1 [compound 29] | > 10000 | > 10000 | > 10000 | > 10000 |  |
| CN(C)CCNC(=O)c1ccc2c(c1)ncn2-c1ccc(CNC(=O)c2cnn(C)c2Cc2ccccc2)cc1 [compound 30] | > 10000 | > 10000 | 368 | 53 |  |
| CN1CCN(CCNC(=O)c2ccc3c(c2)ncn3-c2ccc(CNC(=O)c3cnn(C)c3Cc3ccccc3)cc2)CC1 [compound 31] | > 10000 | 5630 | 0.6 | 0.01 |  |
| Cn1ncc(C(=O)NCc2ccc(-n3cnc4cc(C(=O)NCCN5CCOCC5)ccc43)cc2)c1Cc1ccccc1 [compound 32] | 190 | 32 | 3 | 0.5 |  |
| COc1cc2ncn(-c3ccc(CNC(=O)c4cnn(C)c4Cc4ccccc4)cc3)c2cc1OC [compound 33] | 0.4 | 0.06 | 0.1 | 0.02 |  |
| COc1ccc2c(c1)ncn2-c1ccc(CNC(=O)c2cnn(C)c2Cc2ccccc2)cc1 [compound 34] | 0.08 | 0.005 | 0.1 | 0.002 |  |

| SMILES | EC50 (L929; read-out: EC50 L929 T + S) [nM] | EC50 (L929; read-out: EC50 L929 TNFα) [nM] | EC50 (FADD−/− Jurkat; [2]) [nM] | EC50 (FADD−/− Jurkat; [3]) [nM] | also measured |
| --- | --- | --- | --- | --- | --- |
| COc1ccc2ncn(-c3ccc(CNC(=O)c4cnn(C)c4Cc4ccccc4)cc3)c2c1 [compound 35] | 0.4 | 0.03 | 0.6 | 0.01 |  |
| COc1ccc2c(cnn2-c2ccc(CNC(=O)c3cnn(C)c3Cc3ccccc3)cc2)c1 [compound 36] |  |  | 128 | 18 |  |
| COc1cc2ncnc(-c3ccc(CNC(=O)c4cnn(C)c4Cc4ccccc4)cc3)c2cc1OC [compound 37] |  |  | 1500 | 233 |  |
| Cn1ncc(C(=O)NCc2ccc(-c3ncnc4[nH]ccc34)cc2)c1Cc1ccccc1 [compound 38] | > 10000 | > 10000 | 747 | 152 |  |
| Cn1ncc(C(=O)NCc2ccc(-n3cnc4c(N)nccc43)cc2)c1Cc1ccccc1 [compound 40] | 6.3 | 1.2 | 2.3 | 0.3 |  |
| Cn1ncc(C(=O)NCc2ccc(-n3ncc4c(N)ncnc43)cc2)c1Cc1ccccc1 [compound 41] | 23 | 9.9 | 6.9 | 0.4 |  |
| Cn1ncc(C(=O)NCc2ccc(-n3ccc4c(N)ncnc43)cc2)c1Cc1ccccc1 [compound 42] | 0.9 | 0.1 | 8 | 4.2 |  |
| Cn1nc(C(=O)NCc2ccc(-n3cnc4c(N)ncnc43)cc2)cc1Cc1ccccc1 [compound 43] | 384 | 25 | 0.3 | 0.06 |  |
| Cn1nc(C(=O)NCc2ccc(-n3ncc4c(N)ncnc43)cc2)cc1Cc1ccccc1 [compound 44] |  |  | 451 | 71 |  |
| Cn1nc(C(=O)NCc2ccc(-n3ccc4c(N)ncnc43)cc2)cc1Cc1ccccc1 [compound 45] |  | 2890 | 980 | 137 |  |
| Cn1nc(C(=O)NCc2ccc(-n3ccc4c(N)nccc43)cc2)cc1Cc1ccccc1 [compound 46] |  |  | > 10000 | 361 |  |
| CCn1ncc(C(=O)NCc2ccc(-n3cnc4c(N)ncnc43)cc2)c1Cc1ccccc1 [compound 47] | 74 | 22 | 35 | 1.2 |  |
| Cn1nc(Cl)c(C(=O)NCc2ccc(-n3cnc4c(N)ncnc43)cc2)c1Cc1ccccc1 [compound 48, N-(4-(6-Amino-9H-purin-9-yl)benzyl)-5-benzyl-3-chloro-1-methyl-1H-pyrazole-4-carboxamide] | 4.6 | 0.5 | 0.7 | 0.2 | AUC(0-inf) (PK study in mice; iv, 1 mg/kg): 1310 ng·h/mL; AUC(0-t) (PK study in mice; iv, 1 mg/kg): 1300 ng·h/mL; MRT inf (PK study in mice; iv, 1 mg/kg): 1.97 h; Vd (PK study in mice; iv, 1 mg/kg): 1.55 L/kg; clearance (PK study in mice; iv, 1 mg/kg): 13.3 mL/min/kg; half-life (PK study in mice; iv, 1 mg/kg): 48.6 min; AUC(0-inf) (PK study in mice; po, 10 mg/kg): 8400 ng·h/mL; AUC(0-t) (PK study in mice; po, 10 mg/kg): 8280 ng·h/mL; Cmax (PK study in mice; po, 10 mg/kg): 3050 ng/mL; MRT inf (PK study in mice; po, 10 mg/kg): 4.05 h; Tmax (PK study in mice; po, 10 mg/kg): 25.2 min; bioavailability (PK study in mice; po, 10 mg/kg): 63.9%; half-life (PK study in mice; po, 10 mg/kg): 83.4 min |
| Nc1ncnc2c1ncn2-c1ccc(CNC(=O)c2ccc(F)n2Cc2ccccc2)cc1 [compound 51] | 74 | 0.9 | 1.6 | 0.1 |  |
| Nc1ncnc2c1ncn2-c1ccc(CNC(=O)c2ccc(Cl)n2Cc2ccccc2)cc1 [compound 52] |  |  | 80.6 | 6.6 |  |
| N#Cc1ccc(C(=O)NCc2ccc(-n3cnc4c(N)ncnc43)cc2)n1Cc1ccccc1 [compound 53] |  |  | 1860 | 214 |  |
| C[C@@H](NC(=O)c1cnn(C)c1Cc1ccccc1)c1ccc(-n2cnc3c(N)ncnc32)cc1 [compound 55] | 219 | 52 | 132 | 36 |  |
| Cn1ncc(C(=O)NC(C)(C)c2ccc(-n3cnc4c(N)ncnc43)cc2)c1Cc1ccccc1 [compound 56] |  | 550 | 28 | 7.5 |  |
| Cn1nc2c(c1Cc1ccccc1)C(=O)N(Cc1ccc(-n3cnc4c(N)ncnc43)cc1)CC2 [compound 59] | 39 | 8.4 | 2.3 | 0.2 |  |
| Cn1nc2c(c1Cc1ccccc1)C(=O)N(Cc1ccc(-n3cnc4c(N)ncnc43)cc1)C2 [compound 60] | 116 | 4.8 | 2.9 | 0.05 |  |
| Nc1ncnc2c1ncn2-c1ccc(CN2CCc3cn(Cc4ccccc4)nc3C2=O)cc1 [compound 61] |  |  | 0.4 | 0.3 |  |
